The record followed here is patent publication US6630488B1, “Quinolizinones as integrin inhibitors” (Biochem Pharma, Inc., priority 1998, dated 2003).

Structures can show the parent of a compound that is named as a salt. Where two headings read alike, the source gives them in different places. A value given as a limit tells only on which side of the number the result lay.

One series deals with T1, placental αvβ3 (Homo sapiens, UniProt P05106+P06756).
T1 construct: purified active GP IIb-IIIa (Calbiochem) or olacental αvβ3 at 0.5 μg/ml; from tissue; host or cells: placenta
T1 sequence (P06756 31-889 limits assumed): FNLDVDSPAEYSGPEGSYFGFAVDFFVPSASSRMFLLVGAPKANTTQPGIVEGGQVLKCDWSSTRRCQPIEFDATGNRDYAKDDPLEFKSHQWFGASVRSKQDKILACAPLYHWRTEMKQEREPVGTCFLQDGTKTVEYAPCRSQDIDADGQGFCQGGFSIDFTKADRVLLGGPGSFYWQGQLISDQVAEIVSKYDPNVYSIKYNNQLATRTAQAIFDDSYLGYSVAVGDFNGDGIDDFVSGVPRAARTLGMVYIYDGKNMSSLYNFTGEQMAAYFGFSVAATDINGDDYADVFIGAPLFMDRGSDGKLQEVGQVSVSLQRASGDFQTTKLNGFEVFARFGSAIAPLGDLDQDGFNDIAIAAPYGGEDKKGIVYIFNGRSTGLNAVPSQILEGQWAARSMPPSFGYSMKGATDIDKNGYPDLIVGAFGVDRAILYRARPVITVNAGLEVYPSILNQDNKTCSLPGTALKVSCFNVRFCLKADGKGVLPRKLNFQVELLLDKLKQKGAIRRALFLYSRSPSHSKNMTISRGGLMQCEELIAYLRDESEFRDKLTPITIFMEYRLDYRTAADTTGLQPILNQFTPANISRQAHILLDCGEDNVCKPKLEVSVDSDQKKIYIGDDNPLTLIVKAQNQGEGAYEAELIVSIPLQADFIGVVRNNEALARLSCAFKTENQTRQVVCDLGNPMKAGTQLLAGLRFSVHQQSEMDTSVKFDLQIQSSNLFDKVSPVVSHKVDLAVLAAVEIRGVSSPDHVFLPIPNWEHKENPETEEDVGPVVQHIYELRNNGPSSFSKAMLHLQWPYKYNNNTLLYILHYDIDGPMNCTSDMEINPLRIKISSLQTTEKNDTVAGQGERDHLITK
T1 sequence (P06756 891-1048 partner limits assumed): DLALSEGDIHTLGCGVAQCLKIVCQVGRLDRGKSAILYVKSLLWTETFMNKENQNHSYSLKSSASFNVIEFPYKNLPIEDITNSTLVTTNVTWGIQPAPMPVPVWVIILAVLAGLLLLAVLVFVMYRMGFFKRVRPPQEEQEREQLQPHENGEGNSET
T1 sequence (P05106 27-788): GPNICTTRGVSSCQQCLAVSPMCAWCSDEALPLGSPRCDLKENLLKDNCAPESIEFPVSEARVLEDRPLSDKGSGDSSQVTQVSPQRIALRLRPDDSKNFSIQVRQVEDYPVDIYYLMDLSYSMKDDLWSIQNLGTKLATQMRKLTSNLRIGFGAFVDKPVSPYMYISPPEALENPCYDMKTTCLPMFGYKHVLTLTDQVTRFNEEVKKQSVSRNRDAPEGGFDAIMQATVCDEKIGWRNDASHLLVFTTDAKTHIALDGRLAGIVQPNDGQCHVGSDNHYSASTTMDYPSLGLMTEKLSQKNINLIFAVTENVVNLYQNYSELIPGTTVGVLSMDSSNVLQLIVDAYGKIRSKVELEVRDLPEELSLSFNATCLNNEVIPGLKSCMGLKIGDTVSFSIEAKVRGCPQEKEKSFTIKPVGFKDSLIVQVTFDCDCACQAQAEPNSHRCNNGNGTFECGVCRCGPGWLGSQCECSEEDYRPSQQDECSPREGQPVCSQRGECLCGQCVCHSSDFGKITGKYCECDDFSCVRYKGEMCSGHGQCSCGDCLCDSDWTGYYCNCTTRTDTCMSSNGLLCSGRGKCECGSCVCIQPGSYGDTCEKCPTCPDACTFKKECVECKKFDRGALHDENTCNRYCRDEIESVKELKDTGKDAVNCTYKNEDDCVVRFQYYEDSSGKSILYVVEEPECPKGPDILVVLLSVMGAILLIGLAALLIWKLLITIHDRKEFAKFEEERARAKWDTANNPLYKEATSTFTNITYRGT
In words: Fibrinogen binding to immobilized αvβ3. How it is done:
(§1) Nonbound fibrinogen was removed by five washes with binding buffer. Avidin conjugated to alkaline phosphatase (Sigma), diluted in binding buffer, was added and incubated for two hours at 37° C. The plates were washed five times with binding buffer, and after addition of the substrate PNPP (Pierce), the enzyme activity was measured by the absorbance at 405 nm.

The target in a further series is T2, GP IIb-IIIa (αIIbβ3) (Homo sapiens, UniProt P05106+P08514).
T2 construct: purchased Calbiochem
T2 sequence (P08514 32-887 limits assumed): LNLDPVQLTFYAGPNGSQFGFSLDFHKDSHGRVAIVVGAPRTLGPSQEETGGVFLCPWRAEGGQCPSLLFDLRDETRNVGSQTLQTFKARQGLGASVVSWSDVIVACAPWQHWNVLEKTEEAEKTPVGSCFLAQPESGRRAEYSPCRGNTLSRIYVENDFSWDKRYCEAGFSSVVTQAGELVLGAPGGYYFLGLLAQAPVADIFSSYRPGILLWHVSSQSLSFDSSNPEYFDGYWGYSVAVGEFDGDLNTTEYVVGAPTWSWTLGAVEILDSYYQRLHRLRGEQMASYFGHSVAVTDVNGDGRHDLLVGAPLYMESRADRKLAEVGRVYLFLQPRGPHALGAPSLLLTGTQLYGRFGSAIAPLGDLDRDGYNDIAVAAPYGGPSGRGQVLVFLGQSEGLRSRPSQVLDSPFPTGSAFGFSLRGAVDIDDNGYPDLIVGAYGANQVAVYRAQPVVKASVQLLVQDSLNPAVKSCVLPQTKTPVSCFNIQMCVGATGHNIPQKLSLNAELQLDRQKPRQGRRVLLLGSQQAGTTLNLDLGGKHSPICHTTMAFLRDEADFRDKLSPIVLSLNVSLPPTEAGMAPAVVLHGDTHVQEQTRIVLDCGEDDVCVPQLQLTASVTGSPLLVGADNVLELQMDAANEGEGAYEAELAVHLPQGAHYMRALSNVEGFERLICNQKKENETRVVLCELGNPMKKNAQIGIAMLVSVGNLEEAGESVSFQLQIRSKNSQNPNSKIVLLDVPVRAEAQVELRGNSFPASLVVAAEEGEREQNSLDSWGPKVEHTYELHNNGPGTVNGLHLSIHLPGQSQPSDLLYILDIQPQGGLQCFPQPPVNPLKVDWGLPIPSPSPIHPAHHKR
T2 sequence (P08514 891-1039 partner limits assumed): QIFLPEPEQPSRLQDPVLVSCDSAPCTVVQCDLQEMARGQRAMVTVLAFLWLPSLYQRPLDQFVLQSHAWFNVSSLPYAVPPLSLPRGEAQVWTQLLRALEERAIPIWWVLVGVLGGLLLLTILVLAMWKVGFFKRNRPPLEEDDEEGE
T2 sequence (P05106 27-788): as the sequence (P05106 27-788) above
In words: Fibrinogen binding to immobilized GP IIb-IIIa (αIIbβ3). On the procedure:
as §1

For series [1], the system named is Chick Chorioallantoic Membrane (CAM) capillary formation. In words: Chick chorioallantoic membrane (CAM) mesh assay. It counts as in vivo, chicken. Conditions: Day 12, 24 hr treatment. On the procedure:
Fertilized white leghorn chicken eggs (SPAFAS Inc., Norwich, Conn.) were received at day 0 and incubated for 3 days at 37 C with constant humidity. On day 3, eggs were rinsed with 70% ethanol and opened into 100 mm^2 tissue culture coated Petri dishes under aseptic conditions. The embryos were then returned to a humidified 38 C incubator for 7-9 additional days.
Vitrogen (Collagen Biomaterials, Palo Alto, Calif.) at a final concentration of 0.73 mg/ml and Matrigel (Becton Dickinson, Bedford, Mass.) at a final concentration of 10 mg/ml was directly pipetted onto Nylon meshes with 250 μm^2 openings which were cut into 4 mm×4 mm squares and autoclaved. Polymerization of meshes were under aseptic conditions, on bacteriological Petri dishes. The polymerization conditions for each substrate were identical; after mixing with or without […] of VPF/VEGF165 (Peprotech, Rocky Hill, N.J.) and/or compounds of interest, 40 μl were pipetted onto each mesh in a bacteriological Petri dish.
The Petri dish was placed in a humidified 37 C incubator with 5% CO2 for 30 minutes to allow polymerization followed by an incubation at 4 C for 2 hours.
In a tissue culture enclosure, meshes were placed onto the periphery of the CAM of a day 12-14 embryo, excluding areas containing major vessels. The embryos were then returned to the humidified 38 C incubator with 3% CO2 for 24 to 48 additional hours.
Embryos were removed from the incubator and meshes were viewed under a dissecting microscope for gross evaluation. Injection of 400 μl FITC dextran, MW 2,000,000 (Sigma, St. Louis, Mo.) through glass microcapillary tubes by infusion into the umbilical vein was performed at a rate of 200 μl per minute. The FITC dextran was allowed to circulate for 5 minutes and 3.7% formaldehyde in PBS was applied directly on each mesh. The embryos were then incubated at 4 C for 5 minutes and the meshes were dissected off the CAM and fixed in 3.7% formaldehyde for 10 minutes to overnight.
After fixation, meshes were mounted on slides with 90% glycerol in PBS and visualized on an inverted fluorescence microscope. A Nikon Diaphot with a Sony DXC-151A camera attached to the side port was used for capture of images and analysis was with the NIH Image 1.61 software program. For each mesh, 5 random staggered images (approximately 600 μm each) were captured. The areas of high intensity were highlighted and measured. Results are expressed as ability to suppress capillary formation after subtraction from negative control. Values were calculated as i inhibition, considering 100% the capillary density achieved by VPF in the presence of vitrogen alone minus the background levels in the absence of VPF. Negative values indicate angiogenic stimulation above the VPF positive control.

Another series deals with T3, αvβ3 (Homo sapiens, UniProt P05106+P06756).
T3 construct: expressed in transfected cells; host or cells: K562
T3 sequence (P06756 31-889 limits assumed): as the sequence (P06756 31-889 limits assumed) above
T3 sequence (P06756 891-1048 partner limits assumed): as the sequence (P06756 891-1048 partner limits assumed) above
T3 sequence (P05106 27-788): as the sequence (P05106 27-788) above
In words: Cell attachment assay, K562 transfected with αvβ3. It counts as cell-based. On the procedure: (§2) The wells of 96-well plates (Immunolon) were coated, by incubation overnight at 4° C., with 5 μg/ml of vitronectin or osteopontin, 10 μg/ml of fibronectin or 10 mg/ml BSA in PBS. The protein solution was flicked out and the wells were blocked with 10 mg/ml BSA (0.1 ml) for 1-2 hours at 37° C.
(§3) Cells were lifted with trypsin-EDTA and washed two times with Hank's balanced salt solution (Sigma) supplemented with 1 mM MgCl2. Cells (75,000 cells/well) were added to coated plates in triplicate and allowed to attach at 37° C. for 1 hour in the presence or absence of specific antibodies at 5 μ/ml or increasing concentrations of compounds of interest (0.001-10 μM). Nonadherent cells were removed by gentle washing twice with PBS. The adherent cells were solubilized with 1% triton X-100 and detected using a fluorescence plate reader (Perkin Elmer).
(§4) The number of attached cells was calculated based upon starched curves for each cell line used in the experiment. […] The results presented are the average of triplicate samples and representative of several separate assays.

A further series addresses T4, α5β1 (Homo sapiens, UniProt P05556+P08648).
T4 construct: Cell Line; K562 transfected αvβ3; HT29; K562; endogenous in cells; host or cells: K562
In words: Cell attachment assay, K562. Conditions: ligand fibronectin, read-out: Cell attachment IC50, α5β1, Fibro-nectin. It counts as cell-based. On the procedure:
The wells of 96-well plates (Immunolon) were coated, by incubation overnight at 4° C., with 5 μg/ml of vitronectin or osteopontin, 10 μg/ml of fibronectin or 10 mg/ml BSA in PBS. The protein solution was flicked out and the wells were blocked with 10 mg/ml BSA (0.1 ml) for 1-2 hours at 37° C. Cells [HT29 (ATOC), HMVEC (Cell Systems), K562 or K562 transfected with αvβ3 (Blystone et al., 1994)] were loaded with a fluorescent marker, 5-chloromethylfluorescein diacetate (Molecular Probes, Eugene, Or) for 1 hour at 37° C., then incubated in fresh medium without the fluorescent marker for 1 hour.
as §3
The number of attached cells was calculated based upon starched curves for each cell line used in the experiment. Non-specific cell attachment (attachment to wells coated with BSA) was always less than 5%. The results presented are the average of triplicate samples and representative of several separate assays.

Series [2] can be described thus: Cell proliferation and cytotoxicity MTT assay, HMVEC. Conditions: human, HMVEC endothelial cells. It counts as cell-based. On the procedure: (§5) The wells of microtiter plates were seeded with 2000 cells/well (T24), 2500 cells/well (HT29), 5000 cells/well (HMVEC)or 2500 cells/well (IAFp2) in 100 μL, followed by an overnight culture for cell adhesion. […] Following culture for 72 hours, 3-(4,5-dimethyl-2-thiazolyl)-2,5-diphenyltetrazolium bromide (MTT; Sigma) at 2 mg/ml was added to each well (50 μL/well) and further incubated for 4 hours at 37° C. The medium was flicked out and 200 μL of a 1:1 solution of ethanol:acetone followed by 25 μL of glycine buffer (0.1 M glycine, 0.1M NaCl, pH 10.5) is added and the color measured by the absorbance at 570 nm.
In general terms: Tetrazolium assays rely on reduction of a dye to a coloured formazan, in cell work by metabolically active cells.

Series [3] in a line: Cell proliferation and cytotoxicity MTT assay, HT29. It counts as cell-based. Conditions: human, HT29 tumor cells. On the procedure:
as §5

Series [4] is described as follows: Cell proliferation and cytotoxicity MTT assay, T24. It counts as cell-based. Conditions: human, T24 tumor cells. How it is done: as §5
A short description of series [5]: Cell proliferation and cytotoxicity MTT assay, IAFp2. Format: cell-based. Conditions: IAFp2 skin fibroblasts, read-out: Cell proliferation and cytotoxicity IC50, IAFp2 Skin Fibroblast. How it is done:
as §5

The target in another series is T5, αvβ5 (Homo sapiens, UniProt P06756+P18084).
T5 construct: Cells [HT29 (ATOC), HMVEC (Cell Systems), K562 or K562 transfected with αvβ3; endogenous in cells; host or cells: HT29
T5 sequence (P06756 31-889 limits assumed): as the sequence (P06756 31-889 limits assumed) above
T5 sequence (P06756 891-1048 partner limits assumed): as the sequence (P06756 891-1048 partner limits assumed) above
T5 sequence (P18084 24-799): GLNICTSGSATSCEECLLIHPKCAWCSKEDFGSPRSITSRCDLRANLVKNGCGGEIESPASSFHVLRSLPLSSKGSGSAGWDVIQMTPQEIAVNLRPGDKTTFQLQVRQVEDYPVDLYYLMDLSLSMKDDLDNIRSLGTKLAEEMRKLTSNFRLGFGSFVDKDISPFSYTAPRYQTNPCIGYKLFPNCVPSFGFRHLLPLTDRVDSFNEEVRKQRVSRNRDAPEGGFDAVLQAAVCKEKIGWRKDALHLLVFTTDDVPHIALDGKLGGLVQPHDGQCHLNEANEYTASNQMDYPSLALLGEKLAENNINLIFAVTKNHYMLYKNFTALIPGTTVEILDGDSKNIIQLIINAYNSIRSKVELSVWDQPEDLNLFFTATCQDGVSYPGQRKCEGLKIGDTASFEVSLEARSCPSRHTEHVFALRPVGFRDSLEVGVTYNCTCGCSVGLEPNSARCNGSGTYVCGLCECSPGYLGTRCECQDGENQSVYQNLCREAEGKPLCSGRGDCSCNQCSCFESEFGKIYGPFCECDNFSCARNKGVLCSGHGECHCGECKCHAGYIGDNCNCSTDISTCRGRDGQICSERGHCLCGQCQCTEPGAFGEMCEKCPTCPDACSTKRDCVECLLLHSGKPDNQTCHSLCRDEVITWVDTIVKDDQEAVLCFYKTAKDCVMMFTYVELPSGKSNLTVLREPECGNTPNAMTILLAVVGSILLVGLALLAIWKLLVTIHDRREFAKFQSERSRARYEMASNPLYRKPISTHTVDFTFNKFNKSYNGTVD
In words: Cell attachment assay, HT29. It counts as cell-based. On the procedure: as §2, §3, §4

[6] abbreviates: biotinylated-fibrinogen 10 nM, immobilized placental αvβ3, read-out: IC50 values for the fibrinogen binding assay αvβ3.
Where [7] appears, read: biotinylated-fibrinogen 10 nM, immobilized GP IIb-IIIa, read-out: IC50 values for the fibrinogen binding assay αIIbβ3.
The mark [8] stands for this setting: Cell attachment IC50, αvβ3, Osteo-Pontin, ligand osteopontin.
[9] abbreviates: Cell attachment IC50, αvβ3, Vitro-nectin, ligand vitronectin.
[10] abbreviates: ligand osteopontin, read-out: Cell attachment IC50, αvβ3, Osteo-Pontin.
Setting [11] is: HT29, ligand vitronectin, read-out: Cell attachment IC50, αvβ5, Vitro-Nectin.

Consider `NCCCOc1ccc2ccc(C(=O)N[C@H]3CCCC[C@@H]3C(=O)O)c(=O)n2c1.O=C(O)C(F)(F)F` (racemic) [Compound V, (+/−)(trans)-2-{[7-(3-Amino-propoxy)-4-oxo-4H-quinolizine-3-carbonyl]-amino}-cyclohexanecarboxylic Acid Trifluoroacetic Acid Salt], for which the IC50 at placental αvβ3 (setting [6]) was > 100 µM; at GP IIb-IIIa (αIIbβ3) (setting [7]), 96 µM. The “CAM inhibition of capillary formation” value was 7% in series [1] (3 μg/mesh, +VPF); 1% in [1] (3 μg/mesh, −VPF); 9% in series [1] (17 μg/mesh, +VPF); 8% in series [1] (17 μg/mesh, −VPF); 20% in series [1] (33 μg/mesh, +VPF); 15% in series [1] (33 μg/mesh, −VPF).

`N=C(N)NCCCOc1ccc2cc(C(=O)NC[C@H](NS(=O)(=O)c3ccccc3)C(=O)O)cc(=O)n2c1` [Compound XV, (S)-2-Benzenesulfonylamino-3-{[7-(3-guanidino-propoxy)-4-oxo-4H-quinolizine-2-carbonyl]-amino}-propionic Acid Hydrochloride]: the IC50 is 0.015 µM at placental αvβ3; 0.0053 µM on GP IIb-IIIa (αIIbβ3); 0.5 ± 0.2 µM at αvβ3 (setting [8]); 2.5 ± 1.5 µM at αvβ3 (setting [9]); > 10 µM at α5β1. Also, the IC50 at 72 h was 16 ± 4 µM in series [2], > 100 µM in [3], > 100 µM in [4] and 17 µM in series [5]. In addition, the “CAM inhibition of capillary formation” value in series [1] (3 μg/mesh, +VPF) is listed as 7%; in series [1] (3 μg/mesh, −VPF), 2%; in series [1] (17 μg/mesh, +VPF), 7%; in series [1] (17 μg/mesh, −VPF), 9%; in [1] (33 μg/mesh, +VPF) it was 10%; in series [1] (33 μg/mesh, −VPF) it was 8%.

With `N=C(N)NCCOc1ccc2cc(C(=O)NC[C@H](NS(=O)(=O)c3ccccc3)C(=O)O)cc(=O)n2c1` [Compound XX, (S)-2-Benzenesulfonylamino-3-{[7-(2-guanidino-ethoxy)-4-oxo-4H-quinolizine-2-carbonyl]-amino}-propionic Acid Hydrochloride], the IC50 on placental αvβ3 was 0.1 µM; at GP IIb-IIIa (αIIbβ3) it was 0.0079 µM; on αvβ3 (setting [8]), 2.3 ± 2 µM; against αvβ3 (setting [9]), > 10 µM; on αvβ5, > 10 µM; on α5β1, > 10 µM. The IC50 at 72 h in series [2] was 35 ± 22 µM; in series [3], 100 µM; in series [4], > 100 µM; in series [5], 21 µM.

Turning to `N=C(N)NCC1CCc2cc(C(=O)NCC(NS(=O)(=O)c3ccccc3)C(=O)O)cc(=O)n2C1` [Compound XXIX, (2S, 7R) and (2S, 7S)-2-Benzenesulfonylamino-3-[(7-guanidinomethyl-4-oxo-6,7,8,9-tetrahydro-4H-quinolizine-2-carbonyl)-amino]-propionic Acid], the IC50 on placental αvβ3 (setting [6]) was 0.0042 µM; on GP IIb-IIIa (αIIbβ3) (setting [7]) it was 0.094 µM; at αvβ3 (setting [10]), 0.16 ± 0.01 µM; at αvβ5 (setting [11]) it was 3.2 ± 1.6 µM; on α5β1, > 10 µM. For the same compound, the IC50 at 72 h in series [2] is 1 ± 0.2 µM; in series [3], 13 µM; in series [4], > 100 µM; in series [5] it was 23 µM. Moreover, the “CAM inhibition of capillary formation” value is listed as 10% in series [1] (3 μg/mesh, +VPF); 4% in series [1] (3 μg/mesh, −VPF); 12% in [1] (17 μg/mesh, +VPF); 8% in series [1] (17 μg/mesh, −VPF); 14% in series [1] (33 μg/mesh, +VPF); 13% in series [1] (33 μg/mesh, −VPF).

As to `Cl.N=C(N)NCc1ccc2cc(C(=O)NC[C@H](NS(=O)(=O)c3ccccc3)C(=O)O)cc(=O)n2c1` [Compound XXVII, (S)-2-Benzenesulfonylamino-3-[(7-guanidinomethyl-4-oxo-4H-quinolizine-2-carbonyl)-amino]-propionic Acid Hydrochloride], the IC50 on placental αvβ3 (setting [6]) is 0.015 µM; at GP IIb-IIIa (αIIbβ3) (setting [7]) it was 0.25 µM; on αvβ3 (setting [10]), 0.43 ± 0.18 µM; at αvβ5 (setting [11]), 5.8 ± 3.6 µM; at α5β1 it was > 10 µM. Besides, the IC50 at 72 h in series [2] is 1.2 ± 0.4 µM; in [3], > 100 µM; in series [4], > 100 µM; in [5] it was > 100 µM. Moreover, the “CAM inhibition of capillary formation” value in [1] (3 μg/mesh, +VPF) is recorded as 9%; in [1] (3 μg/mesh, −VPF) it was 5%; in series [1] (17 μg/mesh, +VPF) it was 12%; in [1] (17 μg/mesh, −VPF), 11%; in series [1] (33 μg/mesh, +VPF) it was 19%; in series [1] (33 μg/mesh, −VPF), 16%.
